Measurements taken from ChEMBL document CHEMBL5370690, “Atypical N-Alkyl to N-Noralkoxy Switch in a Dual cSRC/BCR-ABL1 Kinase Inhibitor Improves Drug Efflux and hERG Affinity” (ACS Med Chem Lett, 2023).

Experiments:
[1] = Mutagenicity in Salmonella typhimurium TA1535 incubated for 96 hrs by Ames test; assay type: toxicity; conditions: salmonella enterica subsp. enterica serovar typhimurium
[2] = Mutagenicity in Salmonella typhimurium TA1537 incubated for 96 hrs by Ames test; assay type: toxicity; conditions: salmonella enterica subsp. enterica serovar typhimurium
[3] = Mutagenicity in Salmonella typhimurium TA98 incubated for 96 hrs by Ames test; assay type: toxicity; conditions: salmonella enterica subsp. enterica serovar typhimurium
[4] = Mutagenicity in Salmonella typhimurium TA100 incubated for 96 hrs by Ames test; assay type: toxicity; conditions: salmonella enterica subsp. enterica serovar typhimurium
[5] = system: KU812 cell line; assay: Antiproliferative activity against human KU812 cell line assessed as cell growth inhibition incubated for 72 hrs by Cell Titer-Glo Luminescent assay; assay type: functional, cell-based; conditions: KU812, 72 h
[6] = system: SUP-B15; assay: Antiproliferative activity against human SUP-B15 cells assessed as cell growth inhibition incubated for 72 hrs by Cell Titer-Glo Luminescent assay; assay type: functional, cell-based; conditions: SUP-B15, 72 h
[7] = system: MEG-01; assay: Antiproliferative activity against human MEG-01 cells assessed as cell growth inhibition incubated for 72 hrs by Cell Titer-Glo Luminescent assay; assay type: functional, cell-based; conditions: MEG-01, 72 h

Compound | Activity [1] | Activity [2] | Activity [3] | Activity [4] | IC50 [5] [nM] | IC50 [6] [nM] | IC50 [7] [nM]
COc1cc(Nc2c(C#N)cnc3cc(OCCON4CCN(C)CC4)c(OC)cc23)c(Cl)cc1Cl | Non-Toxic | Non-Toxic | Non-Toxic | Non-Toxic | – | – | –
COc1cc(Nc2c(C#N)cnc3cc(OCCCN4CCN(C)CC4)c(OC)cc23)c(Cl)cc1Cl [BOSUTINIB] | – | – | – | – | 3.6 | 210 | 13
